# Data published in patent US8471005B2 (Cephalon, Inc., priority 2008, dated 2013).
# Where two headings read alike, the source gives them in different places.
# Key:
# JAK2 = target: T1, JAK2 (Homo sapiens, UniProt O60674); assay: Recombinant Human JAK2 Kinase Assay (TRF); type: biochemical; conditions: read-out: JAK2 Potency
# T1 construct: host or cells: baculovirus expression system
# Procedure, shortened: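 Baculovirus-expressed JAK2 (15 ng/ml) phosphorylated a biotinylated 15-mer peptide captured on Neutravidin, in 20 mM HEPES pH 7.2, 0.2 μM ATP, 1 mM MnCl2, 0.1% BSA, 2.5% DMSO final, 20 min at room temperature. Phosphoproduct detected by time-resolved fluorescence with Eu-N1-labelled PY100 antibody.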
# ALK = target: T2, ALK (Homo sapiens, UniProt Q9UM73); assay: ALK Kinase Assay (ELISA/TRF, PLC-γ substrate); type: biochemical; conditions: read-out: ALK Potency
# T2 construct: host or cells: baculovirus expression system
# Procedure, shortened: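 Read-out is time-resolved fluorescence from a Eu-N1-labeled PT66 antibody that binds phosphorylated PLC-γ, the substrate coated at 10 μg/mL in TBS. ALK at 30 ng/ml starts the reaction, which runs 15 minutes at 37° C.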
# [1] = JAK2 kinase inhibition, 0.2 μM ATP
# [2] = ALK kinase inhibition, 1 μM ATP
# T2 sequence (Q9UM73 19-1620): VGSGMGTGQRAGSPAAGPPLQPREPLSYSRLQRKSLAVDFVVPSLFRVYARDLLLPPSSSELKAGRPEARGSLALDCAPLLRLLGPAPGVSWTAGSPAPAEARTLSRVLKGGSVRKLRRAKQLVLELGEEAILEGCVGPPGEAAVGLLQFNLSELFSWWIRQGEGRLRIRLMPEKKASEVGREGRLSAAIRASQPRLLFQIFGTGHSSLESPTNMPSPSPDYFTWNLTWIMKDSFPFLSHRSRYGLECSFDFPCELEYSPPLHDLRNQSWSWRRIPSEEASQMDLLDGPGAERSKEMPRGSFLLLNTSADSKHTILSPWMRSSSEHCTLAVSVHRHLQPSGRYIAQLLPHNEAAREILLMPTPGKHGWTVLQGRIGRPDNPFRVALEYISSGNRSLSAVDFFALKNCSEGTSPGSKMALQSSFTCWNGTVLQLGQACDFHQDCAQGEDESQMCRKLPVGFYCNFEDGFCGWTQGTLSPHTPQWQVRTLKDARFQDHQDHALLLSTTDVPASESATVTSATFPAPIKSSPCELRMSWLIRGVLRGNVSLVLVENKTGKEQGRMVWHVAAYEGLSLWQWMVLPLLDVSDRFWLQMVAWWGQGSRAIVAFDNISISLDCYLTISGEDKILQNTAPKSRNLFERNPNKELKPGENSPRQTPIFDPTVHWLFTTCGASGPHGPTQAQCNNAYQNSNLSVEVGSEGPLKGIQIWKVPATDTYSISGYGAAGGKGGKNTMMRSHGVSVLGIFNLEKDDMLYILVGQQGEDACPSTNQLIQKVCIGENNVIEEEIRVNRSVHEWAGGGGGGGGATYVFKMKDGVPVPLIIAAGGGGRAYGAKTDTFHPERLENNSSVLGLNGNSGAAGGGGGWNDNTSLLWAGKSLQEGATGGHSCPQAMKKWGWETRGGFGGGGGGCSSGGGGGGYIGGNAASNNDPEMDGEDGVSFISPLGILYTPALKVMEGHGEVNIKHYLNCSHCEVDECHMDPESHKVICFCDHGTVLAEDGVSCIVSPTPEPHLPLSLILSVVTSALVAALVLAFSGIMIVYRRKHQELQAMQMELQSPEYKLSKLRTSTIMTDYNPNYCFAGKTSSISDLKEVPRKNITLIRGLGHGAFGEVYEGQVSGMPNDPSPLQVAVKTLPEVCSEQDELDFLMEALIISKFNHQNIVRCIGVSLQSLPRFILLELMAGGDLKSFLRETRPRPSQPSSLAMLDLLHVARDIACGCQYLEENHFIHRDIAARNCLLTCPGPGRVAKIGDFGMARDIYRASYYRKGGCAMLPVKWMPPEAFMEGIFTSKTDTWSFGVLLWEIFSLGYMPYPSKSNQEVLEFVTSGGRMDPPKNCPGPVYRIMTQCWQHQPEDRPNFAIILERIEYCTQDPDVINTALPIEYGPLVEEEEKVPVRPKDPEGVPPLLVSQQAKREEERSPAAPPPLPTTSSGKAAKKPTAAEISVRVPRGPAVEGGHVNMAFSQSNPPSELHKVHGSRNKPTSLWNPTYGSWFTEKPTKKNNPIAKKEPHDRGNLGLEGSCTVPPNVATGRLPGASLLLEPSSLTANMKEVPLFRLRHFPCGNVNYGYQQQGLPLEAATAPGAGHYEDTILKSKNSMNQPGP
# T1 sequence (O60674 whole entry): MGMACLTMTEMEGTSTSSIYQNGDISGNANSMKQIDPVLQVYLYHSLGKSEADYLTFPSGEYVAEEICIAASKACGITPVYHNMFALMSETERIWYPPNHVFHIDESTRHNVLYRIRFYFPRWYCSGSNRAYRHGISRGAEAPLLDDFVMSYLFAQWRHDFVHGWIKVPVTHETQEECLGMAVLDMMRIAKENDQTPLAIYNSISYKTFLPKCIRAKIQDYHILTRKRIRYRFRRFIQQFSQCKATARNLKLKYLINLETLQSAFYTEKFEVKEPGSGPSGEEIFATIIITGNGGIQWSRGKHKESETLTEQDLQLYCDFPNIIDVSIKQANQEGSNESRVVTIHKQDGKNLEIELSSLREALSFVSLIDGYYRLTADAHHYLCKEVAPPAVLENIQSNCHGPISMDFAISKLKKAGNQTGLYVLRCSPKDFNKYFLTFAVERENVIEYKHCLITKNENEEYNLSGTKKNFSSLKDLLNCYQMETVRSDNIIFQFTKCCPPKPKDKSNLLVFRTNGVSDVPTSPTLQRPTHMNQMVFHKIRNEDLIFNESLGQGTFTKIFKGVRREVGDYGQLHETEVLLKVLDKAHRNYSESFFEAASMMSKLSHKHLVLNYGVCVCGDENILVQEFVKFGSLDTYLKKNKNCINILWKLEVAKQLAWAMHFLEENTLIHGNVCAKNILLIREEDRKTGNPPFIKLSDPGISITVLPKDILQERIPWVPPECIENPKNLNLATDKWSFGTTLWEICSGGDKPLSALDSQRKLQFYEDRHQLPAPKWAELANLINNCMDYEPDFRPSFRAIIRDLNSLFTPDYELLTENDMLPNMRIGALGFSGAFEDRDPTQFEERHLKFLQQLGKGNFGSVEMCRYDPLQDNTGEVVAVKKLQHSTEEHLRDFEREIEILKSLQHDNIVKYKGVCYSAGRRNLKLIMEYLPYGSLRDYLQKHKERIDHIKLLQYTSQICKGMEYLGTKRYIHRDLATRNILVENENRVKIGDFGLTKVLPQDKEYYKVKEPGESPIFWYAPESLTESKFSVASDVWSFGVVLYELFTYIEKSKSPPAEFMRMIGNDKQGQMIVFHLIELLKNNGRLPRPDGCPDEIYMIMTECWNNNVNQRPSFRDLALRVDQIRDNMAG
Compound,IC50 (JAK2; [1]) [µM],IC50 (ALK; [2]) [µM],IC50 (JAK2; JAK2 Kinase Inhibition) [µM],IC50 (ALK; ALK Kinase Inhibition) [µM]
"COc1cc(CN2CCN(C(=O)CNC(=O)OC(C)(C)C)CC2)ccc1Nc1ncc2ccc(-c3ccccc3N(C)S(C)(=O)=O)n2n1 [Example 1239, {2-[4-(4-{7-[2-(Methanesulfonyl-methyl-amino)-phenyl]-pyrrolo[2,1-f][1,2,4]triazin-2-ylamino}-3-methoxy-benzyl)-piperazin-1-yl]-2-oxo-ethyl}-carbamic acid tert-butyl ester]",0.1 to 1,< 0.1,,
"CN(c1ccccc1-c1ccc2cnc(Nc3ccncc3)nn12)S(C)(=O)=O [Example 1364, N-Methyl-N-{2-[2-(pyridin-4-ylamino)-pyrrolo[2,1-f][1,2,4]triazin-7-yl]-phenyl}-methanesulfonamide]",< 0.1,1 to 10,,
"CN1CCN(c2ccc(Nc3ncc4ccc(-c5cccc(NS(C)(=O)=O)c5)n4n3)cc2)CC1 [Example 379, N-(3-{2-[4-(4-Methyl-piperazin-1-yl)-phenylamino]-pyrrolo[2,1-f][1,2,4]triazin-7-yl}-phenyl)-methanesulfonamide]",,,< 0.1,0.1 to 1
"CN1CCN(c2ccc(Nc3ncc4ccc(-c5ccccc5N(C)S(C)(=O)=O)n4n3)nc2)CC1 [Example 1197, N-Methyl-N-(2-{2-[5-(4-methyl-piperazin-1-yl)-pyridin-2-ylamino]-pyrrolo[2,1-f][1,2,4]triazin-7-yl}-phenyl)-methanesulfonamide]",< 0.1,0.1 to 1,,
"Cn1cc(-c2ccc3cnc(Nc4ccc(N5CCN(CCO)CC5)cc4)nn23)cn1 [Example 1181, 2-(4-{4-[7-(1-Methyl-1H-pyrazol-4-yl)-pyrrolo[2,1-f][1,2,4]triazin-2-ylamino]-phenyl}-piperazin-1-yl)-ethanol]",< 0.1,0.1 to 1,,
"Cn1cc(-c2ccc3cnc(N4CCC(Oc5cccc(N)c5)CC4)nn23)cn1 [Example 598, 3-{1-[7-(1-Methyl-1H-pyrazol-4-yl)-pyrrolo[2,1-f][1,2,4]triazin-2-yl]-piperdin-4-yloxy}-phenylamine]",0.1 to 1,> 10,,
"COc1ccccc1-c1ccc2cnc(Nc3ccc4nc(CN5CCN(CCO)CC5)[nH]c4c3)nn12 [Example 1522, 2-(4-{6-[7-(2-Methoxy-phenyl)-pyrrolo[2,1-f][1,2,4]triazin-2-ylamino]-1H-benzimidazol-2-ylmethyl}-piperazin-1-yl)-ethanol]",,,< 0.1,0.1 to 1
"COc1cc(N2CCC(N3CCN(S(C)(=O)=O)CC3)CC2)ccc1Nc1ncc2ccc(-c3ccccc3OC)n2n1 [Example 535, {4-[4-(4-Methanesulfonyl-piperazin-1-yl)-piperidin-1-yl]-2-methoxy-phenyl}-[7-(2-methoxy-phenyl)-pyrrolo[2,1-f][1,2,4]triazin-2-yl]-amine]",< 0.1,< 0.1,,
"COc1ccccc1-c1ccc2cnc(Nc3ccc4oc(C)nc4c3)nn12 [Example 564, [7-(2-Methoxy-phenyl)-pyrrolo[2,1-f][1,2,4]triazin-2-yl]-(2-methyl-benzoxazol-5-yl)-amine]",< 0.1,0.1 to 1,,
"NC(=O)CN1CCC(c2ccc(Nc3ncc4ccc(-c5cccc(S(=O)(=O)N6CCCC6)c5)n4n3)cc2)CC1 [Example 928, 2-[4-(4-{7-[3-(Pyrrolidine-1-sulfonyl)-phenyl]-pyrrolo[2,1-f][1,2,4]triazin-2-ylamino}-phenyl)-piperidin-1-yl]-acetamide]",< 0.1,0.1 to 1,,
"Clc1cccc(Nc2ncc3cc4ccccc4n3n2)c1 [Example 271, (3-Chloro-phenyl)-[1,2,4]triazino[1,6-a]indol-2-yl-amine]",,,0.1 to 1,> 10
"(S)-1-(4-{4-[7-(4-Chloro-2-methoxy-phenyl)-pyrrolo[2,1-f][1,2,4]triazin-2-ylamino]-3-methoxy-phenyl}-piperazin-1-yl)-propan-2-ol [Example 487]",0.1 to 1,< 0.1,,
"CN1CCN(c2ccc(Nc3ncc4ccc(-c5cccc(S(C)(=O)=O)c5)n4n3)cn2)CC1 [Example 1123, [7-(3-Methanesulfonyl-phenyl)-pyrrolo[2,1-f][1,2,4]triazin-2-yl]-[6-(4-methyl-piperazin-1-yl)-pyridin-3-yl]-amine]",< 0.1,0.1 to 1,,
"COc1ccc(-c2ccc3cnc(Nc4ccc(-c5csnn5)cc4)nn23)cn1 [Example 909, [7-(6-Methoxy-pyridin-3-yl)-pyrrolo[2,1-f][1,2,4]triazin-2-yl]-(4-[1,2,3]thiadiazol-4-yl-phenyl)-amine]",< 0.1,1 to 10,,
"COc1ccccc1-c1ccc2cnc(Nc3ccc(C4CCN(CCO)CC4)cc3)nn12 [Example 668, 2-(4-{4-[7-(2-Methoxy-phenyl)-pyrrolo[2,1-f][1,2,4]triazin-2-ylamino]-phenyl}-piperidin-1-yl)-ethanol]",< 0.1,< 0.1,,
"COc1ccccc1-c1ccc2cnc(Nc3ccc(N4CCOCC4)c(F)c3)nn12 [Example 186, (3-Fluoro-4-morpholin-4-yl-phenyl)-[7-(2-methoxy-phenyl)-pyrrolo[2,1-f][1,2,4]triazin-2-yl]-amine]",,,< 0.1,0.1 to 1
"CN1CCN(c2cccc(Nc3ncc4ccc(-c5cnn(C)c5)n4n3)c2)CC1 [Example 969, [3-(4-Methyl-piperazin-1-yl)-phenyl]-[7-(1-methyl-1H-pyrazol-4-yl)-pyrrolo[2,1-f][1,2,4]triazin-2-yl]-amine]",< 0.1,1 to 10,,
"Fc1cc(N2CCOCC2)ccc1Nc1ncc2ccc(-c3cccnc3)n2n1 [Example 372, (2-Fluoro-4-morpholin-4-yl-phenyl)-(7-pyridin-3-yl-pyrrolo[2,1-f][1,2,4]triazin-2-yl)-amine]",,,< 0.1,0.1 to 1
"CS(=O)(=O)Nc1cccc(-c2ccc3cnc(Nc4ccc(CN5CCS(=O)(=O)CC5)cc4)nn23)c1 [Example 1052, N-(3-{2-[4-(1,1-Dioxo-1 $1(6)-thiomorpholin-4-ylmethyl)-phenylamino]-pyrrolo[2,1-f][1,2,4]triazin-7-yl}-phenyl)-methanesulfonamide]",< 0.1,0.1 to 1,,
"NC(=O)CN1CCC(c2ccc(Nc3ncc4ccc(-c5cnccn5)n4n3)cc2)CC1 [Example 1564, 2-{4-[4-(7-Pyrazin-2-yl-pyrrolo[2,1-f][1,2,4]triazin-2-ylamino)-phenyl]-piperidin-1-yl}-acetamide]",,,< 0.1,1 to 10
"COc1cc(N2CCC(N3CCN(C)CC3)CC2)ccc1Nc1ncc2ccc(-c3ccccc3S(=O)(=O)N(C)C)n2n1 [Example 532, 2-(2-{2-Methoxy-4-[4-(4-methyl-piperazin-1-yl)-piperidin-1-yl]-phenylamino}-pyrrolo[2,1-f][1,2,4]triazin-7-yl)-N,N-dimethyl-benzenesulfonamide]",1 to 10,< 0.1,,
"CS(=O)(=O)c1cccc(-c2ccc3cnc(Nc4ccc(N5CCN(CCO)CC5)cc4)nn23)c1 [Example 95, 2-(4-{4-[7-(3-Methanesulfonyl-phenyl)-pyrrolo[2,1-f][1,2,4]triazin-2-ylamino]-phenyl}-piperazin-1-yl)-ethanol]",,,< 0.1,0.1 to 1
"COc1ccc(-c2ccc3cnc(Nc4ccc(N5CCN(C)CC5)nc4)nn23)cn1 [Example 1109, [7-(6-Methoxy-pyridin-3-yl)-pyrrolo[2,1-f][1,2,4]triazin-2-yl]-[6-(4-methyl-piperazin-1-yl)-pyridin-3-yl]-amine]",< 0.1,0.1 to 1,,
